Calls of active or inactive are those of the source. The rule behind the calls is not given here.
Tested on: CCRIS mutagenicity, Ames/micronucleus/aberration tests
Experiment: CCRIS mutagenicity studies
[1] = Test System: AMES SALMONELLA TYPHIMURIUM, Strain/Indicator: TA98, Metabolic Activation: NONE, Method: PREINCUBATION
[2] = Test System: AMES SALMONELLA TYPHIMURIUM, Strain/Indicator: TA100, Metabolic Activation: NONE, Method: PREINCUBATION
[3] = Test System: MOUSE LYMPHOMA, Strain/Indicator: L5178Y (TK+/TK-), Metabolic Activation: NONE, Method: SUSPENSION/PLATE

Cc1ccc2c(c1N)C(=O)c1ccccc1C2=O
mutagenic call (Test System: AMES SALMONELLA TYPHIMURIUM, Strain/Indicator: TA98, Metabolic Activation: HAMSTER, LIVER, S-9, AROCLOR 1254 (30%), Method: PREINCUBATION): active; positive
mutagenic call [1]: inactive; negative
mutagenic call (Test System: AMES SALMONELLA TYPHIMURIUM, Strain/Indicator: TA98, Metabolic Activation: RAT, LIVER, S-9, AROCLOR 1254 (30%), Method: PREINCUBATION): active; positive
mutagenic call (Test System: AMES SALMONELLA TYPHIMURIUM, Strain/Indicator: TA100, Metabolic Activation: HAMSTER, LIVER, S-9, AROCLOR 1254 (30%), Method: PREINCUBATION): inactive; negative
mutagenic call [2]: inactive; negative
mutagenic call (Test System: AMES SALMONELLA TYPHIMURIUM, Strain/Indicator: TA100, Metabolic Activation: RAT, LIVER, S-9, AROCLOR 1254 (30%), Method: PREINCUBATION): active; positive
mutagenic call (Test System: AMES SALMONELLA TYPHIMURIUM, Strain/Indicator: TA1537 R+, Metabolic Activation: NONE, Method: STANDARD PLATE): active; positive
mutagenic call (Test System: AMES SALMONELLA TYPHIMURIUM, Strain/Indicator: TA1537 R+, Metabolic Activation: RAT, LIVER, S-9, AROCLOR 1254, Method: STANDARD PLATE): active; positive
mutagenic call [3]: active; positive

OC[C@H]1O[C@@H](n2cnc3c(NC[C@H](O)COc4cccc5ccccc45)ncnc32)[C@H](O)[C@@H]1O
mutagenic call (Test System: AMES SALMONELLA TYPHIMURIUM, Strain/Indicator: TA97, Metabolic Activation: NONE, Method: STANDARD PLATE): inactive; negative
mutagenic call (Test System: AMES SALMONELLA TYPHIMURIUM, Strain/Indicator: TA97, Metabolic Activation: RAT, LIVER, S-9, AROCLOR 1254, Method: STANDARD PLATE): inactive; negative
mutagenic call (Test System: AMES SALMONELLA TYPHIMURIUM, Strain/Indicator: TA98, Metabolic Activation: NONE, Method: STANDARD PLATE): inactive; negative
mutagenic call (Test System: AMES SALMONELLA TYPHIMURIUM, Strain/Indicator: TA98, Metabolic Activation: RAT, LIVER, S-9, AROCLOR 1254, Method: STANDARD PLATE): inactive; negative
mutagenic call (Test System: AMES SALMONELLA TYPHIMURIUM, Strain/Indicator: TA100, Metabolic Activation: NONE, Method: STANDARD PLATE): inactive; negative
mutagenic call (Test System: AMES SALMONELLA TYPHIMURIUM, Strain/Indicator: TA100, Metabolic Activation: RAT, LIVER, S-9, AROCLOR 1254, Method: STANDARD PLATE): inactive; negative
mutagenic call (Test System: AMES SALMONELLA TYPHIMURIUM, Strain/Indicator: TA1535, Metabolic Activation: NONE, Method: STANDARD PLATE): inactive; negative
mutagenic call (Test System: AMES SALMONELLA TYPHIMURIUM, Strain/Indicator: TA1535, Metabolic Activation: RAT, LIVER, S-9, AROCLOR 1254, Method: STANDARD PLATE): inactive; negative
mutagenic call (Test System: AMES SALMONELLA TYPHIMURIUM, Strain/Indicator: TA1538, Metabolic Activation: NONE, Method: STANDARD PLATE): inactive; negative
mutagenic call (Test System: AMES SALMONELLA TYPHIMURIUM, Strain/Indicator: TA1538, Metabolic Activation: RAT, LIVER, S-9, AROCLOR 1254, Method: STANDARD PLATE): inactive; negative
mutagenic call (Test System: CHINESE HAMSTER OVARY, Strain/Indicator: CHO-KL-BH4 (HGPRT), Metabolic Activation: NONE): inactive; negative
mutagenic call (Test System: CHINESE HAMSTER OVARY, Strain/Indicator: CHO-KL-BH4 (HGPRT), Metabolic Activation: RAT, LIVER, S-9, AROCLOR 1254): inactive; negative
mutagenic call [3]: inactive; negative
mutagenic call (Test System: MOUSE LYMPHOMA, Strain/Indicator: L5178Y (TK+/TK-), Metabolic Activation: RAT, LIVER, S-9, AROCLOR 1254, Method: SUSPENSION/PLATE): active; positive

CCCCN(CCCC)N=O
mutagenic call (Test System: AMES SALMONELLA TYPHIMURIUM, Strain/Indicator: TA100, Metabolic Activation: MOUSE, INTACT UROTHELIAL CELLS, Method: FLUCTUATION TEST): active; positive
mutagenic call (Test System: AMES SALMONELLA TYPHIMURIUM, Strain/Indicator: TA100, Metabolic Activation: RAT, INTACT UROTHELIAL CELLS, Method: FLUCTUATION TEST): active; positive
mutagenic call (Test System: AMES SALMONELLA TYPHIMURIUM, Strain/Indicator: TA100, Metabolic Activation: RAT, LIVER, S-9, AROCLOR 1254, Method: PREINCUBATION): active; positive
mutagenic call (Test System: AMES SALMONELLA TYPHIMURIUM, Strain/Indicator: TA100, Metabolic Activation: RAT, LIVER, S-9, KC500 OR PHENOBARBITAL, Method: LIQUID SUSPENSION): active; positive
mutagenic call (Test System: AMES SALMONELLA TYPHIMURIUM, Strain/Indicator: TA104, Metabolic Activation: RAT, LIVER, S-9, AROCLOR 1254, Method: PREINCUBATION): active; positive
mutagenic call (Test System: AMES SALMONELLA TYPHIMURIUM, Strain/Indicator: TA1530, Metabolic Activation: RAT, LIVER, S-9, Method: STANDARD PLATE): active; positive
mutagenic call (Test System: AMES SALMONELLA TYPHIMURIUM, Strain/Indicator: TA1535, Metabolic Activation: NONE, Method: PREINCUBATION): inactive; negative
mutagenic call (Test System: AMES SALMONELLA TYPHIMURIUM, Strain/Indicator: TA1535, Metabolic Activation: RAT, LIVER, HEPATOCYTES, Method: PREINCUBATION): inactive; negative
mutagenic call (Test System: AMES SALMONELLA TYPHIMURIUM, Strain/Indicator: TA1535, Metabolic Activation: RAT, LIVER, MICROSOMES, KANECHLOR 500, Method: PREINCUBATION): active; positive
mutagenic call (Test System: AMES SALMONELLA TYPHIMURIUM, Strain/Indicator: TA1535, Metabolic Activation: RAT, LIVER, S-9, AROCLOR 1254, Method: PREINCUBATION): active; positive
mutagenic call (Test System: AMES SALMONELLA TYPHIMURIUM, Strain/Indicator: TA1535, Metabolic Activation: RAT, LIVER, S-9, AROCLOR, Method: PREINCUBATION): active; positive
mutagenic call (Test System: AMES SALMONELLA TYPHIMURIUM, Strain/Indicator: TA1535, Metabolic Activation: RAT, LIVER, S-9, SODIUM PHENOBARBITONE, Method: PREINCUBATION): active; positive
mutagenic call (Test System: AMES SALMONELLA TYPHIMURIUM, Strain/Indicator: TA1535, Metabolic Activation: RAT, LIVER, S-9, Method: PREINCUBATION): inactive; negative
mutagenic call (Test System: AMES SALMONELLA TYPHIMURIUM, Strain/Indicator: TA1535ER, Metabolic Activation: NONE, Method: STANDARD PLATE): inactive; negative
mutagenic call (Test System: AMES SALMONELLA TYPHIMURIUM, Strain/Indicator: TA1975, Metabolic Activation: RAT, LIVER, S-9, AROCLOR 1254, Method: PREINCUBATION): active; positive
mutagenic call (Test System: AMES SALMONELLA TYPHIMURIUM, Strain/Indicator: YG7104ER, Metabolic Activation: NONE, Method: STANDARD PLATE): active; positive
mutagenic call (Test System: AMES SALMONELLA TYPHIMURIUM, Strain/Indicator: YG7108ER, Metabolic Activation: NONE, Method: STANDARD PLATE): active; positive
mutagenic call (Test System: CHINESE HAMSTER V-79, Strain/Indicator: V-79/8-AZAGUANINE, Metabolic Activation: RAT, LIVER, S-15, PHENOBARBITAL, Method: STANDARD PLATE): active; positive
mutagenic call (Test System: CHINESE HAMSTER V-79, Strain/Indicator: V-79/OUABAIN, Metabolic Activation: HAMSTER, HEPATOCYTES, Method: CELL-MEDIATED): active; positive
mutagenic call (Test System: E. COLI, Strain/Indicator: WP2 (HCR), Metabolic Activation: RAT, LIVER, MICROSOMES, KANECHLOR 500, Method: PREINCUBATION): active; positive
mutagenic call (Test System: E. COLI, Strain/Indicator: WP2 (HCR-), Metabolic Activation: RAT, LIVER, MICROSOMES, PHENOBARBITAL): active; positive

Cc1cc2ccccc2c2cc([N+](=O)[O-])c3ccccc3c12
mutagenic call [1]: active; positive
mutagenic call (Test System: AMES SALMONELLA TYPHIMURIUM, Strain/Indicator: TA98, Metabolic Activation: RAT, LIVER, S-9, Method: PREINCUBATION): active; positive
mutagenic call [2]: active; positive
mutagenic call (Test System: AMES SALMONELLA TYPHIMURIUM, Strain/Indicator: TA100, Metabolic Activation: RAT, LIVER, S-9, Method: PREINCUBATION): active; positive

Nc1nc2c(ncn2COC(CO)CO)c(=O)[nH]1
mutagenic call (End Point: IN VITRO CHROMOSOMAL ABERRATIONS, Test System: CHO CELLS (CHO-HSVTK), Metabolic Activation: NONE): active; positive (structural changes); concentration chosen also induced apoptosis

CN(N=O)C(=O)Oc1ccccc1Cl
mutagenic call (Test System: E. COLI WP2, Strain/Indicator: WP2, Metabolic Activation: NONE, Method: STANDARD PLATE): active; positive

— PubChem BioAssay AID1259407 (Chemical Carcinogenesis Research Information System (CCRIS), 2018)
